Assay results published in PubChem BioAssay AID330 (DTP/NCI, 2004).
Values joined by “and” are separate entries in the source; they are usually repeats but may differ in a detail not shown here. Equal values may be shown once. Toxic doses and inconclusive results are not listed.

Test system: P388 leukemia ip, CD2F1 mice, survival T/C
Assay: NCI In Vivo Anticancer Drug Screen. Data for tumor model P388 Leukemia (intraperitoneal) in CD2F1 (CDF1) mice
Conditions: endpoint: median survival time, higher = longer survival
Procedure, shortened: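 Mice carrying the transplanted tumor received test compound or vehicle. Survival was recorded in each group, and the value is the treated-group measurement divided by that of the vehicle-treated control group.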

[1] = dose: 100.0 mg/kg/injection, schedule: Q01DX001 (ip), vehicle: Klucel (hydroxypropylcellulose) (HPC)
[2] = dose: 200.0 mg/kg/injection, schedule: Q01DX001 (ip), vehicle: Klucel (hydroxypropylcellulose) (HPC)
[3] = dose: 50.0 mg/kg/injection, schedule: Q01DX005 (ip), vehicle: Klucel (hydroxypropylcellulose) (HPC)
[4] = dose: 100.0 mg/kg/injection, schedule: Q01DX005 (ip), vehicle: Klucel (hydroxypropylcellulose) (HPC)
[5] = dose: 200.0 mg/kg/injection, schedule: Q01DX005 (ip), vehicle: Klucel (hydroxypropylcellulose) (HPC)
[6] = dose: 16.0 mg/kg/injection, schedule: Q01DX009 (ip), vehicle: Klucel (hydroxypropylcellulose) (HPC)
[7] = dose: 32.0 mg/kg/injection, schedule: Q01DX009 (ip), vehicle: Klucel (hydroxypropylcellulose) (HPC)
[8] = dose: 50.0 mg/kg/injection, schedule: Q01DX009 (ip), vehicle: Klucel (hydroxypropylcellulose) (HPC)
[9] = dose: 64.0 mg/kg/injection, schedule: Q01DX009 (ip), vehicle: Klucel (hydroxypropylcellulose) (HPC)
[10] = dose: 100.0 mg/kg/injection, schedule: Q01DX009 (ip), vehicle: Klucel (hydroxypropylcellulose) (HPC)
[11] = dose: 60.0 mg/kg/injection, schedule: Q01DX005 (ip), vehicle: saline with Tween-80
[12] = dose: 120.0 mg/kg/injection, schedule: Q01DX005 (ip), vehicle: saline with Tween-80
[13] = dose: 25.0 mg/kg/injection, schedule: Q01DX005 (ip), vehicle: saline with Tween-80
[14] = dose: 100.0 mg/kg/injection, schedule: Q01DX009 (ip), vehicle: saline with Tween-80
[15] = dose: 200.0 mg/kg/injection, schedule: Q01DX009 (ip), vehicle: saline with Tween-80
[16] = dose: 400.0 mg/kg/injection, schedule: Q01DX009 (ip), vehicle: saline with Tween-80
[17] = dose: 60.0 mg/kg/injection, schedule: Q01DX005 (ip), vehicle: saline
[18] = dose: 120.0 mg/kg/injection, schedule: Q01DX005 (ip), vehicle: saline
[19] = dose: 240.0 mg/kg/injection, schedule: Q01DX005 (ip), vehicle: saline

## C/C=C/C=C(/C=O)[C@@H](O)C(C)=O
dose: 2.0 mg/kg/injection, schedule: Q01DX009 (ip), vehicle: saline + alcohol
  T/C: 121 % of control and 93 % of control
dose: 4.0 mg/kg/injection, schedule: Q01DX009 (ip), vehicle: saline + alcohol
  T/C: 101 % of control
dose: 8.0 mg/kg/injection, schedule: Q01DX009 (ip), vehicle: saline + alcohol
  T/C: 101 % of control
dose: 16.0 mg/kg/injection, schedule: Q01DX009 (ip), vehicle: saline + alcohol
  T/C: 111 % of control

## CNC(=O)NC(c1cc(OC)c(O)c(OC)c1)c1cc2c(cc1O)OCO2 (stereo not given)
dose: 60.0 mg/kg/injection, schedule: Q01DX005 (ip), vehicle: Klucel (hydroxypropylcellulose) (HPC)
  T/C: 95 % of control
dose: 120.0 mg/kg/injection, schedule: Q01DX005 (ip), vehicle: Klucel (hydroxypropylcellulose) (HPC)
  T/C: 94 % of control
dose: 240.0 mg/kg/injection, schedule: Q01DX005 (ip), vehicle: Klucel (hydroxypropylcellulose) (HPC)
  T/C: 87 % of control

## Cc1ccc(S(=O)(=O)NC(=S)Nc2ccccc2)cc1
dose: 100.0 mg/kg/injection, schedule: Q04DX003 (ip), vehicle: saline with Tween-80
  T/C: 99 % of control
dose: 200.0 mg/kg/injection, schedule: Q04DX003 (ip), vehicle: saline with Tween-80
  T/C: 108 % of control
dose: 400.0 mg/kg/injection, schedule: Q04DX003 (ip), vehicle: saline with Tween-80
  T/C: 100 % of control

## CC(=O)c1cc2c(cc1Br)OCO2
[1]
  T/C: 100 % of control
[2]
  T/C: 102 % of control
dose: 400.0 mg/kg/injection, schedule: Q01DX001 (ip), vehicle: Klucel (hydroxypropylcellulose) (HPC)
  T/C: 108 % of control

## C/C(=N\NC(N)=Nc1ccc(Cl)cc1)c1ccc2c(c1)Cc1ccccc1-2
dose: 100.0 mg/kg/injection, schedule: Q04DX002 (ip), vehicle: saline with Tween-80
  T/C: 104 % of control
dose: 200.0 mg/kg/injection, schedule: Q04DX002 (ip), vehicle: saline with Tween-80
  T/C: 111 % of control
dose: 400.0 mg/kg/injection, schedule: Q04DX002 (ip), vehicle: saline with Tween-80
  T/C: 114 % of control

## COc1ccc2nc3ccccc3c(NCCNCCO)c2c1
dose: 1.25 mg/kg/injection, schedule: Q01DX009 (ip), vehicle: saline
  T/C: 105 % of control
dose: 2.5 mg/kg/injection, schedule: Q01DX009 (ip), vehicle: saline
  T/C: 105 % of control
dose: 5.0 mg/kg/injection, schedule: Q01DX009 (ip), vehicle: saline
  T/C: 120 % of control

## Cc1cnc(Sc2ncccc2[N+](=O)[O-])[nH]c1=O
[3]
  T/C: 107 % of control
[4]
  T/C: 93 % of control
[5]
  T/C: 97 % of control

## O=C1OCC2CC3c4ccccc4C12c1ccccc13 (stereo not given)
dose: 25.0 mg/kg/injection, schedule: Q01DX001 (ip), vehicle: Klucel (hydroxypropylcellulose) (HPC)
  T/C: 100 % of control
dose: 50.0 mg/kg/injection, schedule: Q01DX001 (ip), vehicle: Klucel (hydroxypropylcellulose) (HPC)
  T/C: 94 % of control
[1]
  T/C: 100 % of control
[2]
  T/C: 103 % of control

## CCn1c(=O)n(C)c(=O)c2[nH]c(Cl)nc21
[6]
  T/C: 105 % of control
dose: 25.0 mg/kg/injection, schedule: Q01DX009 (ip), vehicle: Klucel (hydroxypropylcellulose) (HPC)
  T/C: 92 % of control
[7]
  T/C: 104 % of control
[8]
  T/C: 91 % of control
[9]
  T/C: 97 % of control
[10]
  T/C: 94 % of control

## NCCN.NCCN.[Cl-].[O]=[Os+2]=[O]
[11]
  T/C: 118 % of control
[12]
  T/C: 114 % of control

## CCOC(=O)CC(=O)Cc1oc2c(C(C)=O)c(O)c(C)c(O)c2c1C
[3]
  T/C: 86 % of control
[4]
  T/C: 87 % of control
[5]
  T/C: 90 % of control

## CC(C)=CCCC(C)C1CCC2(CO2)C2CC=C(C)C2C1O (stereo not given)
dose: 20.0 mg/kg/injection, schedule: Q01DX009 (ip), vehicle: Klucel (hydroxypropylcellulose) (HPC)
  T/C: 102 % of control
dose: 40.0 mg/kg/injection, schedule: Q01DX009 (ip), vehicle: Klucel (hydroxypropylcellulose) (HPC)
  T/C: 96 % of control
dose: 80.0 mg/kg/injection, schedule: Q01DX009 (ip), vehicle: Klucel (hydroxypropylcellulose) (HPC)
  T/C: 102 % of control
dose: 160.0 mg/kg/injection, schedule: Q01DX009 (ip), vehicle: Klucel (hydroxypropylcellulose) (HPC)
  T/C: 99 % of control

## O=S(=O)(c1ccc(NC(=S)NC23CC4CC(CC(C4)C2)C3)cc1)N1CCCCC1
[8]
  T/C: 88 % of control
[10]
  T/C: 93 % of control
dose: 200.0 mg/kg/injection, schedule: Q01DX009 (ip), vehicle: Klucel (hydroxypropylcellulose) (HPC)
  T/C: 94 % of control

## COc1cc2ccncc2cc1O
dose: 3.13 mg/kg/injection, schedule: Q01DX009 (ip), vehicle: water
  T/C: 91 % of control
dose: 6.25 mg/kg/injection, schedule: Q01DX009 (ip), vehicle: water
  T/C: 95 % of control
dose: 12.5 mg/kg/injection, schedule: Q01DX009 (ip), vehicle: water
  T/C: 100 % of control
dose: 25.0 mg/kg/injection, schedule: Q01DX009 (ip), vehicle: water
  T/C: 95 % of control
dose: 50.0 mg/kg/injection, schedule: Q01DX009 (ip), vehicle: water
  T/C: 103 % of control

## CCN(CC)CCC#N
dose: 50.0 mg/kg/injection, schedule: Q01DX009 (ip), vehicle: saline
  T/C: 94 % of control
dose: 100.0 mg/kg/injection, schedule: Q01DX009 (ip), vehicle: saline
  T/C: 87 % of control
dose: 200.0 mg/kg/injection, schedule: Q01DX009 (ip), vehicle: saline
  T/C: 88 % of control

## O=C(O)c1cc(Cc2c[nH]c(=O)[nH]c2=O)ccc1O
[13]
  T/C: 111 % of control
dose: 50.0 mg/kg/injection, schedule: Q01DX005 (ip), vehicle: saline with Tween-80
  T/C: 111 % of control
dose: 100.0 mg/kg/injection, schedule: Q01DX005 (ip), vehicle: saline with Tween-80
  T/C: 101 % of control

## CCOC(=O)CCC1(C(=O)OC)C(=O)CCCCC/C=C/1C(=O)OC (stereo not given)
[14]
  T/C: 113 % of control
[15]
  T/C: 104 % of control
[16]
  T/C: 104 % of control

## CCCn1c(=O)n(CC)c(=O)c2[nH]c(Cl)nc21
[6]
  T/C: 100 % of control and 105 % of control
[7]
  T/C: 102 % of control and 105 % of control
[9]
  T/C: 108 % of control and 112 % of control

## O=[N+]([O-])c1ccc(C=Nc2ccc3c4c(cccc24)-c2ccccc2-3)cc1
dose: 50.0 mg/kg/injection, schedule: Q01DX009 (ip), vehicle: saline with Tween-80
  T/C: 101 % of control
[14]
  T/C: 90 % of control
[15]
  T/C: 108 % of control

## CC(=O)NCCc1nc(-c2nc(C(=O)NCCC[S+](C)C)cs2)cs1
dose: 1.56 mg/kg/injection, schedule: Q01DX005 (ip), vehicle: saline with Tween-80
  T/C: 107 % of control
dose: 3.13 mg/kg/injection, schedule: Q01DX005 (ip), vehicle: saline with Tween-80
  T/C: 107 % of control
dose: 6.25 mg/kg/injection, schedule: Q01DX005 (ip), vehicle: saline with Tween-80
  T/C: 100 % of control and 105 % of control
[13]
  T/C: 96 % of control

## CN(C)CCC(=O)C(=Cc1cccs1)C(=O)CCN(C)C
[17]
  T/C: 101 % of control
[18]
  T/C: 98 % of control
[19]
  T/C: 106 % of control

## c1ccc2c(c1)Cc1nc3ccccc3nc1-2
[14]
  T/C: 100 % of control
[15]
  T/C: 95 % of control
[16]
  T/C: 100 % of control

## CN(Cc1cnc2nc(N)nc(N)c2n1)c1ccc(C(=O)NC(CCC(=O)NC(CCC(=O)O)C(=O)O)C(=O)O)cc1 (stereo not given)
dose: 1.56 mg/kg/injection, schedule: Q01DX009 (ip), vehicle: Klucel (hydroxypropylcellulose) (HPC)
  T/C: 184 % of control and 218 % of control
dose: 3.12 mg/kg/injection, schedule: Q01DX009 (ip), vehicle: Klucel (hydroxypropylcellulose) (HPC)
  T/C: 214 % of control and 94 % of control
dose: 6.25 mg/kg/injection, schedule: Q01DX009 (ip), vehicle: Klucel (hydroxypropylcellulose) (HPC)
  T/C: 88 % of control

## CCOC(=O)/C=C/C(F)(F)F
dose: 30.0 mg/kg/injection, schedule: Q01DX005 (ip), vehicle: saline with Tween-80
  T/C: 100 % of control
dose: 30.0 mg/kg/injection, schedule: Q01DX005 (ip), vehicle: saline
  T/C: 94 % of control
[11]
  T/C: 100 % of control
[17]
  T/C: 99 % of control and 101 % of control
[12]
  T/C: 100 % of control
[18]
  T/C: 100 % of control and 101 % of control
dose: 240.0 mg/kg/injection, schedule: Q01DX005 (ip), vehicle: saline with Tween-80
  T/C: 107 % of control
[19]
  T/C: 100 % of control and 120 % of control
